The supplement of paper PMC10307832

Key:
Assay in all cases: relative viability (nuclei count vs DMSO), 5 days (fraction); higher = more cells survive
[1] = compound: C[C@@H](N)c1ccc(C(=O)Nc2ccnc3[nH]ccc23)cc1 + N=C(N)NC(=N)NCCc1ccccc1 [Phenformin] (partner 250 µM)
In short: (§1)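 Relative viability divides the nuclei count in treated wells by that in vehicle wells. Lung cancer cell lines were seeded in 1536-well plates, dosed by pin tool the next day, and fixed and stained after 5 days in one step with final 0.05% Triton X-100, 1% formaldehyde and 1 ug/ml Hoechst. Dosing was a single drug or a fixed anchor-drug dose plus five library-drug doses (not always all listed) in √10 steps, and values are medians of duplicate plates imaged at 4×.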

[2] = compound: C1CNCCC1C2=CC(=NN2)C3=CC=NC=C3 + Cc1cc(Nc2cc(N3CCN(C)CC3)nc(Sc3ccc(NC(=O)C4CC4)cc3)n2)n[nH]1 [Tozasertib] (partner 0.1 µM)
In short: as §1

[3] = compound: C[C@@H](N)c1ccc(C(=O)Nc2ccnc3[nH]ccc23)cc1 + Nc1ncn([C@H]2C[C@H](O)[C@@H](CO)O2)c(=O)n1 [Decitabine] (partner 2 µM)
In short: as §1

[4] = compound: C1CNCCC1C2=CC(=NN2)C3=CC=NC=C3 + CC(C)C[C@H](NC(=O)[C@H](Cc1ccccc1)NC(=O)c1cnccn1)B(O)O [Bortezomib] (partner 0.002 µM)
In short: as §1

| Cell Line | relative viability ([1]; first compound 0.04 µM) | relative viability ([1]; first compound 0.1265 µM) | relative viability ([1]; first compound 0.4 µM) | relative viability ([1]; first compound 1.265 µM) | relative viability ([1]; first compound 4 µM) | relative viability ([2]; first compound 0.08 µM) | relative viability ([2]; first compound 0.8 µM) | relative viability ([2]; first compound 2.53 µM) | relative viability ([2]; first compound 8 µM) | relative viability ([3]; first compound 0.04 µM) | relative viability ([3]; first compound 0.1265 µM) | relative viability ([3]; first compound 0.4 µM) | relative viability ([3]; first compound 1.265 µM) | relative viability ([3]; first compound 4 µM) | relative viability ([4]; first compound 0.08 µM) | relative viability ([4]; first compound 0.8 µM) | relative viability ([4]; first compound 2.53 µM) | relative viability ([4]; first compound 8 µM) |
| --- | --- | --- | --- | --- | --- | --- | --- | --- | --- | --- | --- | --- | --- | --- | --- | --- | --- | --- |
| 201T | 0.427 | 0.442 | 0.462 | 0.428 | 0.473 | 0.944 | 0.944 | 0.893 | 0.951 | 0.846 | 0.853 | 0.851 | 0.979 | 0.941 | 1.06 | 1.07 | 1.08 | 1.1 |
| A549 | 0.0717 | 0.256 | 0.279 |  | 0.164 |  |  |  |  | 0.343 | 0.254 | 0.374 | 0.316 | 0.286 |  |  |  |  |
| A-427 | 0.287 | 0.402 | 0.332 |  | 0.284 | 0.203 | 0.214 | 0.19 | 0.22 | 0.499 | 0.564 | 0.549 | 0.517 | 0.545 | 1.03 | 0.955 | 1.06 | 0.935 |
| ABC-1 | 0.254 | 0.262 | 0.227 |  | 0.243 | 0.145 | 0.17 | 0.201 | 0.176 | 1.2 | 0.895 | 1.13 | 1.46 | 1.46 | 0.329 | 0.253 | 0.332 | 0.351 |
| BEN | 0.279 | 0.265 | 0.258 | 0.267 | 0.248 | 0.575 | 0.514 | 0.45 | 0.513 | 0.53 | 0.732 | 0.822 | 0.757 | 0.568 | 0.724 | 0.592 | 0.852 | 0.96 |
| CAL-12T | 0.674 | 0.609 | 0.665 | 0.538 | 0.56 | 0.334 | 0.34 | 0.313 | 0.342 |  |  |  |  |  | 1.08 | 1.01 | 1.05 | 1.07 |
| COR-L23 | 0.44 | 0.526 | 0.442 | 0.28 | 0.277 | 0.222 | 0.201 | 0.229 | 0.172 | 0.385 | 0.441 | 0.421 | 0.393 | 0.305 | 0.872 | 0.993 | 0.95 | 0.981 |
| COR-L 105 | 0.446 | 0.492 | 0.523 | 0.423 | 0.377 | 0.348 | 0.311 | 0.348 | 0.349 | 0.651 | 0.674 | 0.627 | 0.495 | 0.526 | 0.737 | 0.746 | 1.01 | 0.851 |
| Calu-6 |  |  |  |  |  |  |  |  |  |  |  |  |  |  | 0.873 | 1.13 | 1.17 | 1.09 |
| ChaGo-K-1 | 0.495 | 0.493 | 0.46 | 0.346 | 0.507 | 0.237 | 0.223 | 0.232 | 0.216 | 0.569 | 0.526 | 0.548 | 0.529 | 0.456 | 0.991 | 1.31 | 1.02 | 0.984 |
| EBC-1 |  |  |  |  |  |  |  |  |  |  |  |  |  |  | 0.694 | 0.575 | 0.591 | 0.55 |
| EKVX | 0.228 | 0.245 | 0.241 | 0.124 | 0.222 | 0.396 | 0.303 | 0.491 | 0.401 | 0.385 | 0.331 | 0.358 | 0.329 | 0.385 | 1.21 | 0.585 | 1.07 | 1.04 |
| EMC-BAC-2 | 0.41 | 0.553 | 0.469 | 0.404 | 0.409 | 0.28 | 0.311 | 0.319 | 0.263 | 1 | 0.968 | 1.11 | 1.04 | 0.903 | 0.978 | 1.19 | 1.2 | 1.03 |
| EPLC-272H | 0.365 | 0.44 | 0.279 | 0.198 | 0.241 | 0.357 | 0.221 | 0.367 | 0.314 | 0.461 | 0.41 | 0.481 |  | 0.492 | 0.971 | 0.913 | 0.965 | 0.993 |
| H3255 | 0.396 | 0.332 | 0.337 | 0.348 | 0.322 | 0.709 | 0.795 | 0.806 | 0.606 | 0.603 | 0.747 | 0.67 | 0.67 | 0.481 | 0.826 | 0.835 | 1.41 | 0.741 |
| HARA |  | 0.481 | 0.495 |  | 0.355 | 0.12 | 0.0979 | 0.11 | 0.0912 | 0.54 | 0.672 | 0.52 | 0.611 | 0.401 | 1 | 1.28 | 1.1 | 1.15 |
| HCC-15 | 0.447 | 0.465 | 0.437 |  | 0.424 | 0.517 | 0.372 | 0.484 | 0.355 | 0.698 | 0.613 | 0.623 | 0.612 | 0.514 | 0.991 | 1.23 | 0.994 | 0.938 |
| HCC-44 | 0.138 | 0.172 | 0.285 | 0.1 | 0.218 | 0.873 | 1.32 | 1.1 | 0.897 | 0.862 | 0.981 | 0.971 | 0.893 | 0.92 | 0.911 | 0.93 | 1 | 0.886 |
| HCC-78 | 1.05 | 0.818 | 0.855 | 0.797 | 0.797 | 0.439 | 0.325 | 0.459 | 0.392 | 0.772 | 0.782 | 0.83 | 0.725 | 0.62 | 0.439 | 0.405 | 0.467 | 0.619 |
| HCC-366 | 0.583 | 0.66 | 0.617 |  | 0.57 | 0.214 | 0.137 | 0.182 | 0.123 | 0.323 | 0.331 | 0.353 | 0.405 | 0.343 | 0.856 | 1.11 | 1.08 | 1.04 |
| HCC-827 | 0.424 | 0.462 | 0.423 | 0.394 | 0.406 | 0.389 | 0.435 | 0.453 | 0.432 |  | 0.33 | 0.379 | 0.227 | 0.331 | 1 | 1.02 | 1.06 | 1.01 |
